The source of these data is US20260325533A1, “CDK INHIBITOR COMPOUNDS” (ALEKSIA THERAPEUTICS, INC., priority 2023, published 2026).

One assay addresses CDK2/CCNE1 (Homo sapiens, UniProt P24941). The assay is described as follows: CDK2 homogeneous time-resolved fluorescence (HTRF) kinase assay. It is filed as biochemical. The conditions noted are these: CDK2/CCNE. In a few lines:
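Compounds were titrated 11-point, half-log from typically 10 μM against 3 nM CDK2/cyclin E1 at 1 mM ATP, with a 20 min enzyme preincubation. Phosphorylation of 50 nM ULight-4E-BP1 peptide over 60 min at 23 °C was detected by europium anti-phospho antibody TR-FRET.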
In general terms: Time-resolved FRET reads energy transfer from a long-lived donor to a nearby acceptor.

The target in the next assay is CDK1/CCNB1 (Homo sapiens, UniProt P06493). The assay is described as follows: CDK1 homogeneous time-resolved fluorescence (HTRF) kinase assay. It is filed as biochemical. The conditions noted are these: CDK1/CCNB. In a few lines: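 High-ATP (1 mM) HTRF assay with 0.5 nM CDK1/cyclin B1 and 50 nM ULight-4E-BP1 (Thr37/46) substrate, 60 min at 23 °C after 20-min compound preincubation. IC50 values come from dose-response curves.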

Where [1] appears, read: 25-250 nM marked x, read-out: CDK2/CCNE IC50 25-250 nM.
[2] abbreviates: >250 nM marked x, read-out: CDK1/CCNB IC50 >250 nM.
The mark [3] stands for this setting: >250 nM marked x, read-out: CDK2/CCNE IC50 >250 nM.

Read-outs that look alike come from different tables or passages of the source.

Chain of CDK1/CCNB1 (P06493 whole entry): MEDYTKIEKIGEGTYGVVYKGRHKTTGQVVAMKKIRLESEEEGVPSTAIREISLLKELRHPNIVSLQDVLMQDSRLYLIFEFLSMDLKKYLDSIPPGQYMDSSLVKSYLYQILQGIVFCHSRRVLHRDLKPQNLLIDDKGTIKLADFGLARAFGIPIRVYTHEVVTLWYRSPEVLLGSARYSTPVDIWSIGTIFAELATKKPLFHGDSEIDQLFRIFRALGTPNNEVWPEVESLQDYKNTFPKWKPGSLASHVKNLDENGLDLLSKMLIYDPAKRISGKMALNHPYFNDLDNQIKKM
Chain of CDK1/CCNB1 (P14635 whole entry partner): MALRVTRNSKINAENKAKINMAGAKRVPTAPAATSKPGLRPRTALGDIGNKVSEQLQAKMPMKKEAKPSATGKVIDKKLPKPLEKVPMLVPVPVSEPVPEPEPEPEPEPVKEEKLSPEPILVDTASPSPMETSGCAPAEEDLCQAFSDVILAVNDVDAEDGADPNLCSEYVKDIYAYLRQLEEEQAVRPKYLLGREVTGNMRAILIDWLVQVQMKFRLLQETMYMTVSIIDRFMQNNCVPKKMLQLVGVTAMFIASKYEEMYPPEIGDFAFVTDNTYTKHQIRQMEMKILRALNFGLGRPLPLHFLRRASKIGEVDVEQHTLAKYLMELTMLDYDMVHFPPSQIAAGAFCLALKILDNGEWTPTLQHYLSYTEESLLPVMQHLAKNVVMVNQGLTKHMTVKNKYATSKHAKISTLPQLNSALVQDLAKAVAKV

For `N#CC1CCN(c2nccc3cnc(Nc4cccc(CO)c4)cc23)CC1` [Ex 134, 1-(7-((3-(hydroxymethyl)phenyl)amino)-2,6-naphthyridin-1-yl)piperidine-4-carbonitrile], the IC50 was 0.025 to 0.25 µM at CDK2/CCNE1 (setting [1]) and greater than 0.25 µM on CDK1/CCNB1 (setting [2]).
For the compound `CS(=O)(=O)c1ccc(Nc2cc3c(-c4cc5cc[nH]c5cn4)nccc3cn2)cc1` [Ex 135, N-(4-(methylsulfonyl)phenyl)-5-(1H-pyrrolo[2,3-c]pyridin-5-yl)-2,6-naphthyridin-3-amine], the values for the IC50 at CDK2/CCNE1 (setting [1]) and on CDK1/CCNB1 (setting [2]) were 0.025 to 0.25 µM and greater than 0.25 µM, respectively.
Consider `N#CC1CCN(c2nccc3cnc(Nc4cccc(C=O)c4)cc23)CC1` [Ex 140, 1-(7-((3-formylphenyl)amino)-2,6-naphthyridin-1-yl)piperidine-4-carbonitrile], for which the IC50 at CDK2/CCNE1 (setting [1]) was 0.025 to 0.25 µM; at CDK1/CCNB1 (setting [2]), greater than 0.25 µM.
Take `N#CC1CCN(c2nccc3cnc(Nc4cccc(CCO)c4)cc23)CC1` [Ex 143, 1-(7-((3-(2-hydroxyethyl)phenyl)amino)-2,6-naphthyridin-1-yl)piperidine-4-carbonitrile]: the IC50 at CDK2/CCNE1 (setting [1]) was 0.025 to 0.25 µM; on CDK1/CCNB1 (setting [2]), greater than 0.25 µM.
Consider `Cn1nncc1-c1nccc2cnc(Nc3ccc(S(C)(=O)=O)cc3)cc12` [Ex 144, 5-(1-methyl-1H-1,2,3-triazol-5-yl)-N-(4-(methylsulfonyl)phenyl)-2,6-naphthyridin-3-amine], for which the IC50 on CDK2/CCNE1 (setting [3]) and at CDK1/CCNB1 (setting [2]) was greater than 0.25 µM in each case.
As to `CN1CCC(c2nccc3cnc(Nc4ccc(S(C)(=O)=O)cc4)cc23)CC1` [Ex 151, 5-(1-methylpiperidin-4-yl)-N-(4-(methylsulfonyl)phenyl)-2,6-naphthyridin-3-amine], the IC50 at CDK2/CCNE1 (setting [1]) is 0.025 to 0.25 µM; on CDK1/CCNB1 (setting [2]) it was greater than 0.25 µM.
The corresponding values for `CCN1CCC(c2nccc3cnc(Nc4ccc(S(C)(=O)=O)cc4)cc23)CC1` [Ex 152, 5-(1-ethylpiperidin-4-yl)-N-(4-(methylsulfonyl)phenyl)-2,6-naphthyridin-3-amine] are 0.025 to 0.25 µM and greater than 0.25 µM.
Regarding `CS(=O)(=O)c1ccc(Nc2cc3c(C4CCN(CC5CCCCC5)CC4)nccc3cn2)cc1` [Ex 153, 5-(1-(cyclohexylmethyl)piperidin-4-yl)-N-(4-(methylsulfonyl)phenyl)-2,6-naphthyridin-3-amine], the IC50 on CDK2/CCNE1 (setting [3]) and on CDK1/CCNB1 (setting [2]) was greater than 0.25 µM each time.
Turning to `CC(=O)N1CCC(c2nccc3cnc(Nc4ccc(S(C)(=O)=O)cc4)cc23)CC1` [Ex 154, 1-(4-(7-((4-(methylsulfonyl)phenyl)amino)-2,6-naphthyridin-1-yl)piperidin-1-yl)ethan-1-one], the IC50 at CDK2/CCNE1 (setting [3]) and on CDK1/CCNB1 (setting [2]) was greater than 0.25 µM in each case.
For the compound `C=CC(=O)N1CCC(c2nccc3cnc(Nc4ccc(S(C)(=O)=O)cc4)cc23)CC1` [Ex 155, 1-(4-(7-((4-(methylsulfonyl)phenyl)amino)-2,6-naphthyridin-1-yl)piperidin-1-yl)prop-2-en-1-one], the IC50 at CDK2/CCNE1 (setting [3]) and at CDK1/CCNB1 (setting [2]) was greater than 0.25 µM each time.
In the case of `C=CS(=O)(=O)c1ccc(Nc2cc3c(-c4ccc(O)cc4)nccc3cn2)cc1` [Ex 157, 4-(7-((4-(vinylsulfonyl)phenyl)amino)-2,6-naphthyridin-1-yl)phenol], the IC50 at CDK2/CCNE1 (setting [1]) is 0.025 to 0.25 µM; at CDK1/CCNB1 (setting [2]), greater than 0.25 µM.
In the case of `Cc1cc2nn(C)cc2cc1-c1nccc2cnc(NC3CCN(S(C)(=O)=O)CC3)cc12` [Ex 159, 5-(2,6-dimethyl-2H-indazol-5-yl)-N-(1-(methylsulfonyl)piperidin-4-yl)-2,6-naphthyridin-3-amine], the IC50 at CDK2/CCNE1 (setting [1]) was 0.025 to 0.25 µM; on CDK1/CCNB1 (setting [2]), greater than 0.25 µM.
On to `C=CS(=O)(=O)c1ccc(Nc2cc3c(-c4cccc(C(F)(F)F)c4)nccc3cn2)cc1` [Ex 160, 5-(3-(trifluoromethyl)phenyl)-N-(4-(vinylsulfonyl)phenyl)-2,6-naphthyridin-3-amine], for which the results for the IC50 on CDK2/CCNE1 (setting [1]) and at CDK1/CCNB1 (setting [2]) were 0.025 to 0.25 µM and greater than 0.25 µM, respectively.
For the compound `C=CS(=O)(=O)c1ccc(Nc2cc3c(-c4cccc(OC(F)(F)F)c4)nccc3cn2)cc1` [Ex 161, 5-(3-(trifluoromethoxy)phenyl)-N-(4-(vinylsulfonyl)phenyl)-2,6-naphthyridin-3-amine], the IC50 at CDK2/CCNE1 (setting [3]) and at CDK1/CCNB1 (setting [2]) was greater than 0.25 µM throughout.
With `CS(=O)(=O)c1ccc(Nc2cc3c(-c4ccc5c(c4)C4(CC4)C(=O)N5)nccc3cn2)cc1` [Ex 163, 5'-(7-((4-(methylsulfonyl)phenyl)amino)-2,6-naphthyridin-1-yl)spiro[cyclopropane-1,3'-indolin]-2'-one], the figures for the IC50 at CDK2/CCNE1 (setting [1]) and at CDK1/CCNB1 (setting [2]) were 0.025 to 0.25 µM and greater than 0.25 µM, respectively.
`Cc1c(-c2nccc3cnc(Nc4ccc(S(C)(=O)=O)cc4)cc23)ccc2c1cnn2C1CCOCC1` [Ex 164, 5-(4-methyl-1-(tetrahydro-2H-pyran-4-yl)-1H-indazol-5-yl)-N-(4-(methylsulfonyl)phenyl)-2,6-naphthyridin-3-amine]: the IC50 at CDK2/CCNE1 (setting [1]) was 0.025 to 0.25 µM; at CDK1/CCNB1 (setting [2]) it was greater than 0.25 µM.
With `Cc1c(-c2nccc3cnc(Nc4ccc(S(C)(=O)=O)cc4)cc23)ccc2nn(C3CCOCC3)cc12` [Ex 165, 5-(4-methyl-2-(tetrahydro-2H-pyran-4-yl)-2H-indazol-5-yl)-N-(4-(methylsulfonyl)phenyl)-2,6-naphthyridin-3-amine], the IC50 on CDK2/CCNE1 (setting [1]) is 0.025 to 0.25 µM; on CDK1/CCNB1 (setting [2]) it was greater than 0.25 µM.
Consider `CS(=O)(=O)c1ccc(Nc2cc3c(C#C[C@H]4CC[C@H](C(N)=O)CC4)nccc3cn2)cc1` [Ex 168, (1r,4r)-4-((7-((4-(methylsulfonyl)phenyl)amino)-2,6-naphthyridin-1-yl)ethynyl)cyclohexane-1-carboxamide], for which the IC50 at CDK2/CCNE1 (<25 nM, read-out: CDK2/CCNE IC50 <25 nM) was less than 0.025 µM; at CDK1/CCNB1 (25-250 nM marked x, read-out: CDK1/CCNB IC50 25-250 nM) it was 0.025 to 0.25 µM.
Regarding `CC(C)N1CCC(c2nccc3cnc(Nc4ccc(S(C)(=O)=O)cc4)cc23)CC1` [Ex 170, 5-(1-isopropylpiperidin-4-yl)-N-(4-(methylsulfonyl)phenyl)-2,6-naphthyridin-3-amine], the IC50 at CDK2/CCNE1 (setting [3]) and at CDK1/CCNB1 (setting [2]) was greater than 0.25 µM each time.
With `C=CCN1CCC(c2nccc3cnc(Nc4ccc(S(C)(=O)=O)cc4)cc23)CC1` [Ex 171, 5-(1-allylpiperidin-4-yl)-N-(4-(methylsulfonyl)phenyl)-2,6-naphthyridin-3-amine], the IC50 on CDK2/CCNE1 (setting [3]) and at CDK1/CCNB1 (setting [2]) was greater than 0.25 µM in each case.
As for `CS(=O)(=O)c1ccc(Nc2cc3c(C4CCN(Cc5ccccc5)CC4)nccc3cn2)cc1` [Ex 172, 5-(1-benzylpiperidin-4-yl)-N-(4-(methylsulfonyl)phenyl)-2,6-naphthyridin-3-amine], the IC50 on CDK2/CCNE1 (setting [3]) and at CDK1/CCNB1 (setting [2]) was greater than 0.25 µM each time.
On to `COc1ccc(CN2CCC(c3nccc4cnc(Nc5ccc(S(C)(=O)=O)cc5)cc34)CC2)cc1` [Ex 173, 5-(1-(4-methoxybenzyl)piperidin-4-yl)-N-(4-(methylsulfonyl)phenyl)-2,6-naphthyridin-3-amine], for which the IC50 on CDK2/CCNE1 (setting [3]) and at CDK1/CCNB1 (setting [2]) was greater than 0.25 µM each time.
As for `CS(=O)(=O)c1ccc(Nc2cc3c(C4CCN(Cc5cccnc5)CC4)nccc3cn2)cc1` [Ex 174, N-(4-(methylsulfonyl)phenyl)-5-(1-(pyridin-3-ylmethyl)piperidin-4-yl)-2,6-naphthyridin-3-amine], the IC50 on CDK2/CCNE1 (setting [3]) and at CDK1/CCNB1 (setting [2]) was greater than 0.25 µM throughout.
As for `CS(=O)(=O)c1ccc(Nc2cc3c(C4CCN(S(C)(=O)=O)CC4)nccc3cn2)cc1` [Ex 175, N-(4-(methylsulfonyl)phenyl)-5-(1-(methylsulfonyl)piperidin-4-yl)-2,6-naphthyridin-3-amine], the IC50 at CDK2/CCNE1 (setting [3]) and on CDK1/CCNB1 (setting [2]) was greater than 0.25 µM in each case.
As for `CC(C)S(=O)(=O)N1CCC(c2nccc3cnc(Nc4ccc(S(C)(=O)=O)cc4)cc23)CC1` [Ex 176, 5-(1-(isopropylsulfonyl)piperidin-4-yl)-N-(4-(methylsulfonyl)phenyl)-2,6-naphthyridin-3-amine], the IC50 on CDK2/CCNE1 (setting [3]) and on CDK1/CCNB1 (setting [2]) was greater than 0.25 µM in each case.
Consider `CNC(=O)N1CCC(c2nccc3cnc(Nc4ccc(S(C)(=O)=O)cc4)cc23)CC1` [Ex 177, N-methyl-4-(7-((4-(methylsulfonyl)phenyl)amino)-2,6-naphthyridin-1-yl)piperidine-1-carboxamide], for which the IC50 at CDK2/CCNE1 (setting [3]) and on CDK1/CCNB1 (setting [2]) was greater than 0.25 µM throughout.
Turning to `CNC(=O)[C@H]1CC[C@H](c2nccc3cnc(Nc4ccc(S(C)(=O)=O)cc4)cc32)CC1` [Ex 178, (1r,4r)-N-methyl-4-(7-((4-(methylsulfonyl)phenyl)amino)-2,6-naphthyridin-1-yl)cyclohexane-1-carboxamide], the IC50 at CDK2/CCNE1 (setting [1]) was 0.025 to 0.25 µM; at CDK1/CCNB1 (setting [2]), greater than 0.25 µM.
The corresponding values for `CCNC(=O)[C@H]1CC[C@H](c2nccc3cnc(Nc4ccc(S(C)(=O)=O)cc4)cc32)CC1` [Ex 179, (1r,4r)-N-ethyl-4-(7-((4-(methylsulfonyl)phenyl)amino)-2,6-naphthyridin-1-yl)cyclohexane-1-carboxamide] are 0.025 to 0.25 µM and greater than 0.25 µM.
Consider `CCCNC(=O)[C@H]1CC[C@H](c2nccc3cnc(Nc4ccc(S(C)(=O)=O)cc4)cc32)CC1` [Ex 180, (1r,4r)-4-(7-((4-(methylsulfonyl)phenyl)amino)-2,6-naphthyridin-1-yl)-N-propylcyclohexane-1-carboxamide], for which the figures for the IC50 on CDK2/CCNE1 (setting [1]) and at CDK1/CCNB1 (setting [2]) were 0.025 to 0.25 µM and greater than 0.25 µM, respectively.
